From ChEMBL document CHEMBL4330132, “5-Keto-3-cyano-2,4-diaminothiophenes as selective maternal embryonic leucine zipper kinase inhibitors” (Bioorg Med Chem Lett, 2019)

Key:
[1] = molecular target: RAC-beta serine/threonine-protein kinase (Homo sapiens) (UniProt P31751); experiment: Binding affinity to wild-type human partial length AKT2 expressed in bacterial expression system assessed as residual binding level at 1 uM by Kinomescan method relative to control
[2] = molecular target: Protein kinase C delta type (Homo sapiens) (UniProt Q05655); experiment: Binding affinity to wild-type human partial length PRKCD (Q328 to D676 residues) expressed in bacterial expression system assessed as residual binding level at 1 uM by Kinomescan method relative to control
Chain of Protein kinase C delta type (Homo sapiens) (Q05655 whole entry, looked up, the tested form may be a part): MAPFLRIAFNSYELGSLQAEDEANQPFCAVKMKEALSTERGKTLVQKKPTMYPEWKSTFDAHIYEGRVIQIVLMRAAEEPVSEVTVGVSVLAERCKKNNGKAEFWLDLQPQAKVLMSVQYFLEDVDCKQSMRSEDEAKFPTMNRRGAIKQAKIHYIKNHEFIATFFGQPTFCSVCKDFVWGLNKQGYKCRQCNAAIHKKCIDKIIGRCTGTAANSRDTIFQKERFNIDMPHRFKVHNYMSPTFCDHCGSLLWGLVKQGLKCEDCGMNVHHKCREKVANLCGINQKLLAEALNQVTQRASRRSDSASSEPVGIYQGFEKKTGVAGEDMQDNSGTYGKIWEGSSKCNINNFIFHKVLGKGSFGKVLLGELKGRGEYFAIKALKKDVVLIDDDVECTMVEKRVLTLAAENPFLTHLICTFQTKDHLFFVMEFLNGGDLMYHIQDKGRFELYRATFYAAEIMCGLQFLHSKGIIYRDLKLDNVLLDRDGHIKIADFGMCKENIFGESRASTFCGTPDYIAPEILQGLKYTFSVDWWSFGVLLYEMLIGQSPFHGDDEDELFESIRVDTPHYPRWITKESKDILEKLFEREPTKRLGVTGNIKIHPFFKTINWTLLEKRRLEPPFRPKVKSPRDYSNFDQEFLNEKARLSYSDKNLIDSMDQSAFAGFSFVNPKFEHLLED

[3] = molecular target: Mitogen-activated protein kinase 6 (Homo sapiens) (UniProt Q16659); experiment: Binding affinity to wild-type human partial length ERK3 (M1 to P413 residues) expressed in bacterial expression system assessed as residual binding level at 1 uM by Kinomescan method relative to control
[4] = test system: Mast/stem cell growth factor receptor Kit (Homo sapiens), P10721 [D816V]; experiment: Binding affinity to human partial length KIT D816V mutant (I571 to D952 residues) expressed in bacterial expression system assessed as residual binding level at 1 uM by Kinomescan method relative to control
[5] = test system: Mast/stem cell growth factor receptor Kit (Homo sapiens), P10721 [A829P]; experiment: Binding affinity to human partial length KIT A829P mutant (I571 to D952 residues) expressed in mammalian expression system assessed as residual binding level at 1 uM by Kinomescan method relative to control
[6] = molecular target: RAC-alpha serine/threonine-protein kinase (Homo sapiens) (UniProt P31749); experiment: Binding affinity to wild-type human partial length AKT1 expressed in bacterial expression system assessed as residual binding level at 1 uM by Kinomescan method relative to control
[7] = molecular target: Calcium/calmodulin-dependent protein kinase kinase 2 (Homo sapiens) (UniProt Q96RR4); experiment: Binding affinity to wild-type human partial length CAMKK2 (D65 to V471 residues) expressed in bacterial expression system assessed as residual binding level at 1 uM by Kinomescan method relative to control
[8] = molecular target: Serine/threonine-protein kinase MAK (Homo sapiens) (UniProt P20794); experiment: Binding affinity to wild-type human partial length MAK (M1 to P314 residues) expressed in bacterial expression system assessed as residual binding level at 1 uM by Kinomescan method relative to control
[9] = molecular target: Mitogen-activated protein kinase 11 (Homo sapiens) (UniProt Q15759); experiment: Binding affinity to wild-type human full length p38-beta (M1 to Q364 residues) expressed in bacterial expression system assessed as residual binding level at 1 uM by Kinomescan method relative to control
Chain of Mitogen-activated protein kinase 11 (Homo sapiens) (Q15759 whole entry, the tested form may be a part, canonical isoform): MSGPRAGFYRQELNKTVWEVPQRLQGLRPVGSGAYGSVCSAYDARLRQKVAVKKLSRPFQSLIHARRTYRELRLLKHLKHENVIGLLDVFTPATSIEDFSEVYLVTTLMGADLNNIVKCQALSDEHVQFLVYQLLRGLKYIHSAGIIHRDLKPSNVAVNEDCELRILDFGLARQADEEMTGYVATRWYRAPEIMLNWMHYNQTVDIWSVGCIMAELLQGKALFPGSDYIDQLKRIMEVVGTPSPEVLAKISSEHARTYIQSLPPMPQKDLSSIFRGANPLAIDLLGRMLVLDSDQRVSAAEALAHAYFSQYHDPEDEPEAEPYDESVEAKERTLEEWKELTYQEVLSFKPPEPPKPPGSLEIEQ

[10] = test system: Phosphatidylinositol 4,5-bisphosphate 3-kinase catalytic subunit alpha isoform (Homo sapiens), P42336 [H1047Y]; experiment: Binding affinity to human partial length PIK3CA H1047Y mutant (R108 to N1068 residues) expressed in mammalian expression system assessed as residual binding level at 1 uM by Kinomescan method relative to control
[11] = molecular target: Death-associated protein kinase 1 (Homo sapiens) (UniProt P53355); experiment: Binding affinity to wild-type human partial length DAPK1 (M1 to F296 residues) expressed in bacterial expression system assessed as residual binding level at 1 uM by Kinomescan method relative to control
[12] = molecular target: Serine/threonine-protein kinase PLK1 (Homo sapiens) (UniProt P53350); experiment: Binding affinity to wild-type human partial length PLK1 (A33 to F325 residues) expressed in mammalian expression system assessed as residual binding level at 1 uM by Kinomescan method relative to control
[13] = test system: Epidermal growth factor receptor (Homo sapiens), P00533 [UNDEFINED MUTATION]; experiment: Binding affinity to human partial length EGFR S752-I759del mutant expressed in bacterial expression system assessed as residual binding level at 1 uM by Kinomescan method relative to control
Chain of Epidermal growth factor receptor (Homo sapiens), P00533 [UNDEFINED MUTATION] (P00533 whole entry, looked up, stated change not applied, the tested form may be a part): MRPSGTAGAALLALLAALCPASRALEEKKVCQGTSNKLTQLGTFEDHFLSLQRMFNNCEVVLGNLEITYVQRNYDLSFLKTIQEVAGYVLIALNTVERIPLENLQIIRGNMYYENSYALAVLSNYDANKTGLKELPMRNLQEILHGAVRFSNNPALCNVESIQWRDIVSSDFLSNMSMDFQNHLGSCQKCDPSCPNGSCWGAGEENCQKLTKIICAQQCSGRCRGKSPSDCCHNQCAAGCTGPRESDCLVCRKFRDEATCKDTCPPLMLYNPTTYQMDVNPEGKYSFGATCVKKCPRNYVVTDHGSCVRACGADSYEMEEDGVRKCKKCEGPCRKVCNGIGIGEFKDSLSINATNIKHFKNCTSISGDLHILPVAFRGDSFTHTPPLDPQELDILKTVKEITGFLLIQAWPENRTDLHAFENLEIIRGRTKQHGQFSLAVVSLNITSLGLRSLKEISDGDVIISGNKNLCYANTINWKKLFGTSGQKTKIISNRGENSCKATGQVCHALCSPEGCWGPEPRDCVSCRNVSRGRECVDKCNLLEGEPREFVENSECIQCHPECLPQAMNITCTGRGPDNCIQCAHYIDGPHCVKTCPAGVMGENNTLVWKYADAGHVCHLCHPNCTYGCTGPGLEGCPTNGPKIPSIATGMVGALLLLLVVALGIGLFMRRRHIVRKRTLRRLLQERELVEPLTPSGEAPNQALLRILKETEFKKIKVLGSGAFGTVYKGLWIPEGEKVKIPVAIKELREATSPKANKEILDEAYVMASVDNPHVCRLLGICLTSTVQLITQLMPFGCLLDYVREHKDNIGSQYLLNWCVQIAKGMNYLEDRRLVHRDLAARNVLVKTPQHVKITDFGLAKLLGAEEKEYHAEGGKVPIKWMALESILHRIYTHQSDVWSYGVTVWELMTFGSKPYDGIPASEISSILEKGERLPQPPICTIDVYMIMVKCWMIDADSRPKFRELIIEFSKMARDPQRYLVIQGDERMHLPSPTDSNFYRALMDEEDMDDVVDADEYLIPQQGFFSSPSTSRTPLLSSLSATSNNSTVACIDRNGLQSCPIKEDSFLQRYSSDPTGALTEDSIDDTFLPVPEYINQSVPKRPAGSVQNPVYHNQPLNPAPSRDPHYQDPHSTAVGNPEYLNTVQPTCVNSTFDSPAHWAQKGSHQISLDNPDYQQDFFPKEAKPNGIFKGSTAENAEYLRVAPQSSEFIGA

[14] = test system: Epidermal growth factor receptor (Homo sapiens), P00533 [UNDEFINED MUTATION]; experiment: Binding affinity to human partial length EGFR L747-S752del/P753S mutant expressed in bacterial expression system assessed as residual binding level at 1 uM by Kinomescan method relative to control
[15] = molecular target: Serine/threonine-protein kinase 10 (Homo sapiens) (UniProt O94804); experiment: Binding affinity to wild-type human partial length LOK (E16 to V314 residues) expressed in bacterial expression system assessed as residual binding level at 1 uM by Kinomescan method relative to control
[16] = molecular target: Mitogen-activated protein kinase kinase kinase 3 (Homo sapiens) (UniProt Q99759); experiment: Binding affinity to wild-type human partial length MAP3K3 (E320 to Y626 residues) expressed in mammalian expression system assessed as residual binding level at 1 uM by Kinomescan method relative to control
Chain of Mitogen-activated protein kinase kinase kinase 3 (Homo sapiens) (Q99759 whole entry, the tested form may be a part): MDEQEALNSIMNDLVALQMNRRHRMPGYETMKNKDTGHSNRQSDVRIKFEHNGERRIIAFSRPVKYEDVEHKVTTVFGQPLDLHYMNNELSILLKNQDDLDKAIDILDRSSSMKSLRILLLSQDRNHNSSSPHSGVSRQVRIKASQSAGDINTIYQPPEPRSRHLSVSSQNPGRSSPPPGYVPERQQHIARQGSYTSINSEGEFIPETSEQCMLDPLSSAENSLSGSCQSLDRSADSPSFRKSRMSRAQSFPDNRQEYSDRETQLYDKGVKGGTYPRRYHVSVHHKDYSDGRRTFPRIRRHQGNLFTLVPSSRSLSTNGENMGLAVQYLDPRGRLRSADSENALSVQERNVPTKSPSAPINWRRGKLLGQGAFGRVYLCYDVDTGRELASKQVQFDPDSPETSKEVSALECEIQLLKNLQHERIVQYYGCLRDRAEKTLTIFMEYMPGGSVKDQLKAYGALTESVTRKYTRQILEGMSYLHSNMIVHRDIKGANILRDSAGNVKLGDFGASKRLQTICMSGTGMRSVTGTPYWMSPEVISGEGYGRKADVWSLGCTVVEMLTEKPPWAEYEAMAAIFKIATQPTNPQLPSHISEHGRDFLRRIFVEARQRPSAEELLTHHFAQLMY

[17] = molecular target: Activin receptor type-2B (Homo sapiens) (UniProt Q13705); experiment: Binding affinity to wild-type human ACVR2B (H169 to D504 residues) expressed in bacterial expression system assessed as residual binding level at 1 uM by Kinomescan method relative to control
[18] = molecular target: cAMP-dependent protein kinase catalytic subunit beta (Homo sapiens) (UniProt P22694); experiment: Binding affinity to wild-type human full length PKAC-beta (M1 to F351 residues) expressed in bacterial expression system assessed as residual binding level at 1 uM by Kinomescan method relative to control
[19] = test system: Phosphatidylinositol 4,5-bisphosphate 3-kinase catalytic subunit alpha isoform (Homo sapiens), P42336 [H1047L]; experiment: Binding affinity to human partial length PIK3CA H1047L mutant (R108 to N1068 residues) expressed in mammalian expression system assessed as residual binding level at 1 uM by Kinomescan method relative to control
[20] = molecular target: Mitogen-activated protein kinase kinase kinase kinase 1 (Homo sapiens) (UniProt Q92918); experiment: Binding affinity to wild-type human full length HPK1 (M1 to R799 residues) expressed in bacterial expression system assessed as residual binding level at 1 uM by Kinomescan method relative to control
[21] = molecular target: Serine/threonine-protein kinase SIK1 (Homo sapiens) (UniProt P57059); experiment: Binding affinity to wild-type human partial length SIK (M1 to Y304 residues) expressed in bacterial expression system assessed as residual binding level at 1 uM by Kinomescan method relative to control
[22] = molecular target: Discoidin domain-containing receptor 2 (Homo sapiens) (UniProt Q16832); experiment: Binding affinity to wild-type human partial length DDR2 (V555 to E855 residues) expressed in mammalian expression system assessed as residual binding level at 1 uM by Kinomescan method relative to control
Chain of Discoidin domain-containing receptor 2 (Homo sapiens) (Q16832 whole entry, the tested form may be a part): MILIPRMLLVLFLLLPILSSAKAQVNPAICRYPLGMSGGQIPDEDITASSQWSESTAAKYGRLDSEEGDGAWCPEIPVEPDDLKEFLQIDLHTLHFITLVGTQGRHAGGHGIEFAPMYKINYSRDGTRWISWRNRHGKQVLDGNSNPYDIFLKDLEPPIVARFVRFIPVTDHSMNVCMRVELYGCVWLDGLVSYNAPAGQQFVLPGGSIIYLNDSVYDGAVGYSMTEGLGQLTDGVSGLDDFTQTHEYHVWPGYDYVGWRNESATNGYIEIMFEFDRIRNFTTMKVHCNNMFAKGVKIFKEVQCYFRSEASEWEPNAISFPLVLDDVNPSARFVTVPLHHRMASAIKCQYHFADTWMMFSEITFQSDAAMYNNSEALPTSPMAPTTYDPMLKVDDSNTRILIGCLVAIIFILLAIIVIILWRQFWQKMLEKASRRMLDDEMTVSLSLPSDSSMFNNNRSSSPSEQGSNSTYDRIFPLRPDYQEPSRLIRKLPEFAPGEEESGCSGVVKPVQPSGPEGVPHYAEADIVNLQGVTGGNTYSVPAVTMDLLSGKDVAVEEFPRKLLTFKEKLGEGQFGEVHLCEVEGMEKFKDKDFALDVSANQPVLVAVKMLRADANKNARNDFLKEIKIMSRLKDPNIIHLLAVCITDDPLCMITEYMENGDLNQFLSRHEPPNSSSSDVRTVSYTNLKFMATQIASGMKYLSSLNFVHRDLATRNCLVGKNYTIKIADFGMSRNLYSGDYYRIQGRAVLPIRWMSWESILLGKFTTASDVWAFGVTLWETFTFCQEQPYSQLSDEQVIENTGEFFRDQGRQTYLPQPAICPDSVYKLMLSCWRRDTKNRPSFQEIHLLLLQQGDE

[23] = molecular target: Casein kinase II subunit alpha (Homo sapiens) (UniProt P68400); experiment: Binding affinity to wild-type human full length CSNK2A1 (M1 to Q391 residues) expressed in mammalian expression system assessed as residual binding level at 1 uM by Kinomescan method relative to control
Chain of Casein kinase II subunit alpha (Homo sapiens) (P68400 whole entry, looked up, the tested form may be a part, canonical isoform): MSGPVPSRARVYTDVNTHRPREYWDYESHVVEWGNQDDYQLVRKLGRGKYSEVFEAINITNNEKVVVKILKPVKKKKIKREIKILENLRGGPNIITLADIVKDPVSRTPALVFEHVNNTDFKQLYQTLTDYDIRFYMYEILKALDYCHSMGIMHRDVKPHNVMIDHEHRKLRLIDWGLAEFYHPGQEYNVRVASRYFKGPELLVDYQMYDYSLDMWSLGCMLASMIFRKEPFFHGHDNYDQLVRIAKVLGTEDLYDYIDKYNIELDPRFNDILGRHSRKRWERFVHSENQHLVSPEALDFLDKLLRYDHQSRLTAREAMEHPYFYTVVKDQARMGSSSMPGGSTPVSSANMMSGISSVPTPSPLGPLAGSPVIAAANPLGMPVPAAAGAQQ

[24] = molecular target: Casein kinase I isoform epsilon (Homo sapiens) (UniProt P49674); experiment: Binding affinity to wild-type human full length CSNK1E (M1 to K416 residues) expressed in bacterial expression system assessed as residual binding level at 1 uM by Kinomescan method relative to control
Chain of Casein kinase I isoform epsilon (Homo sapiens) (P49674 whole entry, looked up, the tested form may be a part, canonical isoform): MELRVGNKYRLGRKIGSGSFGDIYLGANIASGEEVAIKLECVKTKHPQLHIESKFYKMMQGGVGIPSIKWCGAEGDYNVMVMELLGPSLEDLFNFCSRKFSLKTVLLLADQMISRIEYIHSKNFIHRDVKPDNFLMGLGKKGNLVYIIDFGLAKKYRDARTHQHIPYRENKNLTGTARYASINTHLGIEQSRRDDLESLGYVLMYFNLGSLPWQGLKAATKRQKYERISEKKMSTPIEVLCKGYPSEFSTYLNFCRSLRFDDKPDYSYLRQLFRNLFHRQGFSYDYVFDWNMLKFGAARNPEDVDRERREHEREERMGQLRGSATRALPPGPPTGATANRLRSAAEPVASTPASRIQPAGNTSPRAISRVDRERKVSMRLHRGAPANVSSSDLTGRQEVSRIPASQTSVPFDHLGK

[25] = molecular target: Tyrosine-protein kinase receptor UFO (Homo sapiens) (UniProt P30530); experiment: Binding affinity to wild-type human partial length AXL (R497 to Y821 residues) expressed in bacterial expression system assessed as residual binding level at 1 uM by Kinomescan method relative to control

Chain of RAC-beta serine/threonine-protein kinase (Homo sapiens) (P31751 whole entry, the tested form may be a part): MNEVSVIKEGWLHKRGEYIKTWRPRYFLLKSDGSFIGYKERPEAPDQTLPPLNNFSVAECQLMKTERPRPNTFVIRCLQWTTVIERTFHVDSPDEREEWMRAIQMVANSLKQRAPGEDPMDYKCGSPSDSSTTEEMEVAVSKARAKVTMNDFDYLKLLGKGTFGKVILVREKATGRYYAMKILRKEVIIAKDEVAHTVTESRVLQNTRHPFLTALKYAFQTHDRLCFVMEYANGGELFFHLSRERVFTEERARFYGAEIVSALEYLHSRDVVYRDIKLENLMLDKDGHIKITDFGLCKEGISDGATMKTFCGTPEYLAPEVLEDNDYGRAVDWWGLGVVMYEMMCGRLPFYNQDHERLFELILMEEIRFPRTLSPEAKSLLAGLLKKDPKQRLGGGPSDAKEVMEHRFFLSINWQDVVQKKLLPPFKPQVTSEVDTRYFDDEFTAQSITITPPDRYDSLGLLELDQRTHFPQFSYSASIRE

Structure (SMILES): CC(C)Nc1sc(C(=O)c2ccc(Cl)s2)c(N)c1C#N
- Activity [1]: 93%
- Activity [2]: 72%
- Activity [3]: 100%
- Activity [4]: 55%
- Activity [5]: 66%
- Activity [6]: 84%
- Activity [7]: 76%
- Activity [8]: 100%
- Activity [9]: 83%
- Activity [10]: 100%
- Activity [11]: 100%
- Activity [12]: 100%
- Activity [13]: 75%
- Activity [14]: 82%
- Activity [15]: 82%
- Activity [16]: 100%
- Activity [17]: 92%
- Activity [18]: 100%
- Activity [19]: 99%
- Activity [20]: 100%
- Activity [21]: 100%
- Activity [22]: 100%
- Activity [23]: 100%
- Activity [24]: 61%
- Activity [25]: 89%
